Values quoted from earlier work, collected in patent US20110030103A1, “LIPOPEPTIDES AND LIPOPEPTIDE SYNTHETASES” (priority 2007, published 2011).
*1 amine or outer side, *2 acyl side, *3 side chain or, on linkers, in order; H or OH if unused. Where a SMILES comes first, the peptide text is derived from it. Bridges are numbered along the chain shown (N, C = ends). [ ]: non-standard residue; d: D form. X1 = CC(C)CCCCCCCCC[C@H](CC(=O)[*:1])O[*:2]

System: bacteria, including both Gram-negative and Gram-positive bacteria
Conditions: minimal antibacterial effects; background statement

SMILES: CC(C)CCCCCCCCC[C@@H]1CC(=O)N[C@@H](CCC(=O)O)C(=O)N[C@@H](CC(C)C)C(=O)N[C@H](CC(C)C)C(=O)N[C@@H](C(C)C)C(=O)N[C@@H](CC(=O)O)C(=O)N[C@H](CC(C)C)C(=O)N[C@@H](CC(C)C)C(=O)O1 [surfactin] (EL[dL]VD[dL]L; linker N-C via X1)
- minimum inhibitory concentration (MIC): 12 to 50 µg/mL
